Consider four compounds from patent US20240190865A1, “T-TYPE CALCIUM CHANNEL ANTAGONISTS AND USES THEREOF” (THE BOARD OF TRUSTEES OF THE LELAND STANFORD JUNIOR …, priority 2021, published 2024).

The test system of assay [1] is Miro1. Description: Miro1 fibroblast assay (CCCP challenge, Miro1 Western blot). It is filed as cell-based. The following applies: skin fibroblasts from human Parkinson's disease patients, CCCP 40 μM 24 hr; read-out: Fibroblast IC50 (nM), Miro1 reduction. As to the method:
Fibroblast Challenge and Miro1 Western blot: Skin fibroblasts were obtained from human Parkinson's disease (PD) patients. CCCP was applied at 40 μM for 24 hr to fibroblasts before cells were lysed in RIPA lysis buffer with 0.25 mM PMSF and protease inhibitors. Lysates were cleared by centrifugation at 17,000×g for 10 min at 4° C., and supernatants were run in an SDS-PAGE for Western blotting. After electrophoresis, nitrocellulose membranes (Bio-Rad) were used in wet transfer. Transferred membranes were first blocked for 1 hr in phosphate-buffered saline (PBS) containing 5% fat-free milk and 0.1% tween-20, and then incubated with the following primary antibodies: rabbit anti-Miro1 (HPA010687, Sigma-Aldrich) at 1:1,000, mouse anti-ATP50 (AB14730, Abcam) at 1:5,000, mouse anti-β-Actin (A00702, Genscript) at 1:3,000, or rabbit anti-VDAC (4661S, Cell Signaling Technology) at 1:1,000 at 4° C. overnight in blocking buffer. West Dura ECL reagents (GE Healthcare) were used for ECL immunoblotting with HRP-conjugated goat anti-mouse or anti-rabbit, anti-mouse IgG (Jackson ImmunoResearch Laboratories) at 1:5-10,000. Membranes were exposed to UltraCruz autoradiography films (Santa Cruz Biotechnology) and developed on a Konica Minolta SRX-101A developer.
T-type calcium channel antagonists that could reduce Miro1 level were tested in the above PD fibroblast assay.
(A western blot detects proteins with antibodies after separation by electrophoresis.)

Assay [2] concerns Miro1. The experiment in a line: Miro1 reduction after compound administration, Western blot. It is filed as cell-based. The note with it: Western blot method.
The subject of another assay is mutant SNCA flies. Description: Parkinson's disease fly model, locomotion (negative geotaxis Performance Index). Format: in vivo. The note with it: PD fly model (mutant SNCA flies), 2.5 μM in feed for 10 days. How it is done: The Parkinson's disease (PD) fly model was used as described in Hsieh C-H, Li L, Vanhauwaert R, Nguyen KT, Davis M D, Bu G, et al. Miro1 Marks Parkinson's Disease Subset and Miro1 Reducer Rescues Neuron Loss in Parkinson's Models. Cell Metab. 2019; 1131-1140. The average Performance Index (PI) (negative geotaxis) was evaluated. Briefly, adult flies were gently tapped to the base of a modified 25 ml climbing tube and their climbing progress was recorded after 45 sec. Three populations of flies were assessed, and for each population, flies were examined 3 times per experiment. The recorded values were used to calculate the average PI.
Feeding PD Flies with a Calcium Channel Blocker Rescues Locomotion Deficits. Benidipine was tested in a PD fly model (mutant SNCA flies) and the flies examined for their locomotion.

Broadly, the IC50 is the concentration that gives 50% inhibition. Consider `O=C(c1cc(S(=O)(=O)Nc2ccccc2F)c(F)cc1Cl)N1CCN2CCC[C@@H]2C1` [ABT-639, 5-[(8aR)-3,4,6,7,8,8a-hexahydro-1H-pyrrolo[1,2-a]pyrazine-2-carbonyl]-4-chloro-2-fluoro-N-(2-fluorophenyl)benzenesulfonamide], for which, in the assay with Miro1 [1], the IC50 amounted to 5410 nM. Besides, the “Miro1 Lowering” value with Miro1 [2] was “YES”.
Turning to `N#Cc1ccc(Cn2ccc(NC(=O)Cc3ccc(C4(C(F)(F)F)CC4)cc3)n2)nc1` [ACT-709478, N-(1-((5-cyanopyridin-2-yl)methyl)-1H-pyrazol-3-yl)-2-(4-(1-(trifluoromethyl)cyclopropyl)phenyl)acetamide], in the assay on Miro1 [1], the concentration for half-maximal inhibition (IC50) is 3930 nM. Also, the “Miro1 Lowering” value in the assay with Miro1 [2] is listed as “YES”.
`COC(=O)C1=C(C)NC(C)=C(C(=O)OC2CCCN(Cc3ccccc3)C2)C1c1cccc([N+](=O)[O-])c1` (stereo not shown) [Benidipine, 1,4-dihydro-2,6-dimethyl-4-(3-nitrophenyl)-3,5-pyridine-dicarboxylic acid methyl 1-(phenylmethyl)-3-piperidinyl ester]: the “locomotor decline / locomotion deficits” value is listed as “significantly improved locomotor decline” in the assay on mutant SNCA flies and “rescuing locomotor deficits” with mutant SNCA flies (listed as benidipine). Moreover, in the assay on Miro1 [1], the IC50 amounted to 2560 nM. Further, the “Miro1 Lowering” value in the assay on Miro1 [2] was “YES”.
Regarding `CC(C)c1ccc(CC(=O)N[C@H](C)c2ccc(OCC(F)(F)F)cn2)cc1` [MK-8998, (R)-2-(4-Isopropylphenyl)-N-(1-(5-(2,2,2-trifluoroethoxy)pyridin-2-yl)ethyl)acetamide], the IC50 with Miro1 [1] amounted to 693 nM. Besides, in the assay on Miro1 [2], the “Miro1 Lowering” value was “YES”.
